Results published in ChEMBL document CHEMBL5154820 (Eur J Med Chem, 2022).

Experiments:
[1] = Acute toxicity against ICR mouse assessed as morphological changes in lung at 1000 mg/kg, ip measured after 14 days by H and E staining method; assay type: organism-based; settings: in vivo, 336 h, time 14 day
[2] = Apparent clearance during terminal phase in C57 nude mouse at 30 mg/kg, ip measured at 0.083 to 24 hrs by LC/MS/MS analysis; assay type: ADME, organism-based; settings: in vivo, time 0.083-24 hrs, read-out: CLz/F (converted)
SiHa = assay: Potency index, ratio of cisplatin IC50 to test compound IC50 for cytotoxicity against human DDP resistant SiHa cells; assay type: functional
[3] = Toxicity against BABL/c mouse assessed as morphological changes in spleen at 30 mg/kg, ip administered daily for 21 days followed by addition of 3 mg/kg DDP for every 2 days by H and E staining method; assay type: organism-based; settings: in vivo, 504 h, time 21 day
HeLa [4] = assay: Antitumor activity against human HeLa cells xenografted in BABL/c mouse assessed as tumor growth inhibition at 30 mg/kg, ip administered daily for 21 days followed by addition of 3 mg/kg DDP for every 2 days relative to control; assay type: functional; settings: 504 h, time 21 day, read-out: TGI
HeLa [5] = assay: Antitumor activity against human HeLa cells xenografted in BABL/c mouse assessed assessed as reduction in tumor volume at 60 mg/kg, ip administered daily for 21 days and measured every 3 day ( Rvb = 2336 mm3); assay type: functional; settings: time 21 day
HeLa [6] = assay: Induction of cell cycle arrest in human HeLa cells assessed as 4N cells at 0.1 uM measured after 24 hrs by propidium iodide staining based flow cytometric analysis analysis ( Rvb = 20.3%); assay type: functional
HeLa [7] = assay: Antitumor activity against human HeLa cells xenografted in BABL/c mouse assessed assessed as reduction in tumor volume at 30 mg/kg, ip administered daily for 21 days and measured every 3 days ( Rvb = 2336 mm3); assay type: functional; settings: time 21 day
[8] = Acute toxicity against ICR mouse assessed as focal necrosis in liver at 1000 mg/kg, ip measured after 14 days by H and E staining method; assay type: organism-based; settings: in vivo, 336 h, time 14 day
HeLa [9] = assay: Antitumor activity against human HeLa cells xenografted in BABL/c mouse assessed assessed as reduction in tumor volume at 30 mg/kg, ip administered daily for 21 days followed by addition of 3 mg/kg DDP for every 2 days and measured every 3 days ( Rvb = 2336 mm3); assay type: functional; settings: time 21 day
HeLa [10] = assay: Potency index, ratio of cisplatin IC50 to test compound IC50 for cytotoxicity against human DDP resistant HeLa cells; assay type: functional
[11] = Nephrotoxicity in BABL/c mouse assessed as increased urea nitrogen level at 60 mg/kg, ip administered daily for 21 days relative to vehicle; assay type: toxicity, organism-based; settings: in vivo, 504 h, time 21 day
[12] = Retention time of the compound; assay type: physicochemical
HeLa [13] = assay: Induction of cell cycle arrest in human HeLa cells assessed as 2N cells at 0.4 uM measured after 24 hrs by propidium iodide staining based flow cytometric analysis analysis ( Rvb = 47.4%); assay type: functional
HeLa [14] = assay: Antitumor activity against human HeLa cells xenografted in BABL/ mouse assessed as tumor growth inhibition at 60 mg/kg, ip administered daily for 21 days relative to control; assay type: functional; settings: 504 h, time 21 day, read-out: TGI
[15] = Cmax in C57 nude mouse at 30 mg/kg, ip measured at 0.083 to 24 hrs by LC/MS/MS analysis; assay type: ADME, organism-based; set-up: dose 30 mg/kg, time 0.083-24 hrs, route ip; settings: in vivo
[16] = target: T1, Tubulin beta (Homo sapiens) (UniProt P68371+Q9H4B7+Q13509+P04350+Q3ZCM7+P07437+Q13885+Q9BVA1+Q9BUF5+A6NNZ2); assay: Binding affinity to beta-tubulin colchicine binding site in human HeLa cells assessed as decrease of adduct formation by measuring gray value measured at 100 uM incubated for 2 hrs followed by addition of EBI measured after 1.5 hrs by EBI competition based Western blotting analysis; assay type: cell-based; settings: time 3.5 hrs
HeLa [17] = assay: Induction of apoptosis in human HeLa cells assessed as late apoptotic cells at 0.4 uM measured after 24 hrs by Annexin V-FITC/7-AAD staining based flow cytometric analysis (reference value: 8.51%); assay type: functional
HeLa [18] = assay: Antimigratory activity against human HeLa cells at 0.4 uM measured after 24 hrs by scratch wound healing based fluorescence inverted microscopic analysis; assay type: functional
[19] = Acute toxicity against ICR mouse assessed as inflammatory cell infiltration in kidney at 1000 mg/kg, ip measured after 14 days by H and E staining method; assay type: organism-based; settings: in vivo, 336 h, time 14 day
HeLa [20] = assay: Induction of cell cycle arrest in human HeLa cells assessed as >4N cells at 0.2 uM measured after 24 hrs by propidium iodide staining based flow cytometric analysis analysis ( Rvb = 8.84%); assay type: functional
[21] = target: T1, Tubulin beta (Homo sapiens); assay: Binding affinity to beta-tubulin colchicine binding site in human HeLa cells assessed as decrease of adduct formation by measuring gray value measured at 25 uM incubated for 2 hrs followed by addition of EBI measured after 1.5 hrs by EBI competition based Western blotting analysis; assay type: cell-based; settings: time 3.5 hrs
[22] = Toxicity against BABL/c mouse assessed as morphological changes in kidney at 30 mg/kg, ip administered daily for 21 days followed by addition of 3 mg/kg DDP for every 2 days by H and E staining method; assay type: organism-based; settings: in vivo, 504 h, time 21 day
[23] = Half life in C57 nude mouse at 30 mg/kg, ip measured at 0.083 to 24 hrs by LC/MS/MS analysis; assay type: ADME, organism-based; settings: in vivo, time 0.083-24 hrs
[24] = Apparent volume of distribution during terminal phase in C57 nude mouse at 30 mg/kg, ip measured at 0.083 to 24 hrs by LC/MS/MS analysis; assay type: ADME, organism-based; settings: in vivo, time 0.083-24 hrs, read-out: Vz/F
HeLa [25] = assay: Induction of apoptosis in human HeLa cells assessed as early apoptotic cells at 0.1 uM measured after 24 hrs by Annexin V-FITC/7-AAD staining based flow cytometric analysis (reference value: 20.8%); assay type: functional
HeLa [26] = assay: Induction of cell cycle arrest in human HeLa cells assessed as S-phase at 0.1 uM measured after 24 hrs by propidium iodide staining based flow cytometric analysis analysis ( Rvb = 15.5%); assay type: functional
[27] = Toxicity against BABL/c mouse assessed as morphological changes in liver at 30 mg/kg, ip administered daily for 21 days followed by addition of 3 mg/kg DDP for every 2 days by H and E staining method; assay type: organism-based; settings: in vivo, 504 h, time 21 day
HeLa [28] = assay: Induction of cell cycle arrest in human HeLa cells assessed as S-phase at 6 nM measured after 24 hrs by propidium iodide staining based flow cytometric analysis analysis ( Rvb = 23.4%); assay type: functional
HeLa [29] = assay: Induction of apoptosis in human HeLa cells assessed as necrotic cells at 1.5 nM measured after 24 hrs by Annexin V-FITC/7-AAD staining based flow cytometric analysis (reference value: 0.45%); assay type: functional
HeLa [30] = assay: Induction of cell cycle arrest in human HeLa cells assessed as accumulation of cells at G2/M phase at 3 nM after 24 hrs by propidium iodide staining based flow cytometric analysis (reference value: 17.1%); assay type: functional
HeLa [31] = assay: Induction of cell cycle arrest in human HeLa cells assessed as accumulation of cells at G2/M phase at 1.5 nM after 24 hrs by propidium iodide staining based flow cytometric analysis (reference value: 17.1%); assay type: functional

CCOc1ccc(-c2cncnc2-c2cc(OC)c(OC)c(OC)c2)cc1Cl
Activity [1]: Non-Toxic
CL/F [2]: 84.2 mL/min/kg
Ratio IC50 (SiHa): 2.7
Activity [3]: Non-Toxic
inhibition in vivo at 30 mg/kg (HeLa [4]): 73%
Activity (HeLa [5]): 1083 mm3
Activity (HeLa [6]): 24.7%
Activity (HeLa [7]): 1578 mm3
Activity [8]: Non-Toxic
Activity (HeLa [9]): 724 mm3
Ratio IC50 (HeLa [10]): 2.7
Activity [11]: 1.3%
Retention_time [12]: 2.06 min
Activity (HeLa [13]): 7.03%
inhibition in vivo at 60 mg/kg (HeLa [14]): 58%
Cmax [15]: 6220 ng/mL
Activity [16]: 2
Activity (HeLa [17]): 3.98%
Activity (HeLa [18]): 50%
Activity [19]: Non-Toxic
Activity (HeLa [20]): 17.4%
Activity [21]: 1.17
Activity [22]: Non-Toxic
half-life [23]: 1.56 h
Vd/F [24]: 11.3 L/kg
Activity (HeLa [25]): 35.9%
Activity (HeLa [26]): 13%
Activity [27]: Non-Toxic

COc1ccc(/C=C\c2cc(OC)c(OC)c(OC)c2)cc1O [COMBRETASTATIN A4]
Activity (HeLa [28]): 15.9%
Activity (HeLa [29]): 0.91%
Activity (HeLa [30]): 28.2%
Activity (HeLa [31]): 22.5%
